The source of these data is patent US11345710B2, “Imidazo[1,2-b]pyrimido[4,5-d]pyridazin-5(6H)-ones and the use thereof” (IMPACT THERAPEUTICS (SHANGHAI), INC, priority 2017, dated 2022).

Series [1] deals with Wee1 kinase (h) (Homo sapiens, UniProt P30291). In words: Wee1 kinase (h) detection method, [γ-33P]-ATP filter assay. Type of series: biochemical. To be noted: C 0.01 μm; 10 μM ATP; 40 minutes at room temperature. An outline of the steps:
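Radiometric filter-binding assay with human Wee1 in 20 mM Tris/HCl pH 8.5, 0.2 mM EDTA, 500 μM peptide substrate, 10 mM Mg acetate, 10 μM [γ-33P]-ATP; compounds at final 1, 0.1 or 0.01 μM. Reaction 40 min at room temperature, stopped with 0.5% phosphoric acid, spotted on P30 filtermat, scintillation counted, duplicates.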

Series [2] relates to LoVo cells. In words: MTT based cell viability assay on LoVo cells. To be noted: Homo sapiens, 72 h; LoVo cells, 3 d, MTT; read-out: IC50, growth inhibition on LoVo cells.
Series [3] concerns patients with advanced solid tumors. The following applies: cited from earlier work.
Series [4] relates to NCI-H1299 cells. In words: MTT based cell viability assay on NCI-H1299 cells. The following applies: Homo sapiens, 72 h; NCI-H1299 cells, 3 d, MTT; read-out: IC50, growth inhibition on NCI-H1299 cells. The gist of the method:
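NCI-H1299 cells (1000/well) were plated overnight, then given a seven-point serial compound dilution plus DMSO control for 3 d at 37 °C, 5% CO2. Viability was read by MTT (0.5 mg/mL, 4 h, DMSO-solubilised) at 552/630/690 nm. IC50 came from a sigmoidal fit of survival versus concentration.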

The mark [5] stands for this setting: of 176 evaluable patients, alone or in combination with chemotherapy.

pIC50: −log10 of the molar value. Where two headings read alike, the source gives them in different places.

Wee1 kinase (h), sequence (P30291 whole entry): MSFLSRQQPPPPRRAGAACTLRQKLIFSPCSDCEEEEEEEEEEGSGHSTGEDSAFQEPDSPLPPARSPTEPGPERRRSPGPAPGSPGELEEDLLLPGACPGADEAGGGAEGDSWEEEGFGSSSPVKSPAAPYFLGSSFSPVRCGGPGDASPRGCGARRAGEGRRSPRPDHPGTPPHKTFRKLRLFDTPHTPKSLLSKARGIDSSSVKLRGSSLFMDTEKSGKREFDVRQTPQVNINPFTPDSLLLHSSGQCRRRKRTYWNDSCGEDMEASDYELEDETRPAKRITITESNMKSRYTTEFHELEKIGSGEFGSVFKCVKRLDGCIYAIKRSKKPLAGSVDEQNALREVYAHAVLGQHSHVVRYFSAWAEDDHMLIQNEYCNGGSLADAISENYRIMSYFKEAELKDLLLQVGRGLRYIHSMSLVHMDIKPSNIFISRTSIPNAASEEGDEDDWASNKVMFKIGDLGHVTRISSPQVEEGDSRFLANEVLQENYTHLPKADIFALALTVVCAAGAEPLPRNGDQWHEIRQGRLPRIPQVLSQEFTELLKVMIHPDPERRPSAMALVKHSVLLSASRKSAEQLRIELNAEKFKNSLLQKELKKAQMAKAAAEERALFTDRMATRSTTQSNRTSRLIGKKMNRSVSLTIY

As to `C=CCn1c(=O)c2cnc(Nc3ccc(N4CCN(C)CC4)cc3)nc2n1-c1cccc(C(C)(C)O)n1` [AZD1775], in series [1], the “Inh. (%) of Wee1 kinase” value was found to be 28%. Also, the pIC50 (in general, the negative decadic logarithm of the IC50, by convention in mol/L) is 6.81 in series [2] and 6.93 in series [4]. Moreover, the response rate in series [3] (TP53 wild-type patients (n=33)) is recorded as 12%; in series [3] (patients with TP53 mutation (n=19)) it was 21%. Also, the safety and tolerability entry in series [3] (alone or in combination with chemotherapy, at a certain dose) is “safe and tolerable”. Moreover, in series [3] (setting [5]), the partial response was 10%. Moreover, in series [3] (setting [5]), the “stable disease as the best response” value is on record as 53%.
